pEC50: −log10 of the molar value. Like-named read-outs stand apart in the source and are kept apart here.
Columns and labels:
[1] = tested on: LPS induced IL-23 (p19/p40) in DC cells; assay: IL23-p19 ELISA, dendritic (DC) cells differentiated from human PBMC, LPS stimulated; type: cell-based; details: LPS 1 μg/ml, 18 hours, 10 pt
Outline: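 Human PBMC-derived dendritic cells (7 days GM-CSF 100 ng/ml plus IL-4 20 ng/ml, then primed 24 h with IFNγ 50 ng/ml) pre-incubated 1 h with compound, then stimulated 18 h at 37 °C with LPS 1 μg/ml. Supernatant IL-23 measured by sandwich chemiluminescent ELISA (anti-p19 capture, anti-p40 detection); cytotoxicity by CellTiter-Glo.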

[2] = tested on: LPS Induced IL23p19 in THP-1 Cells; assay: LPS Induced IL23p19 in THP-1 Cells (with IFNγ Primed) Assay; type: cell-based, human; details: THP-1 cells primed with IFNγ 50 ng/mL, LPS 1 ug/mL, 18 hours, 10 pt, read-out: IL23-p19 ELISA, THP1-IFNγ, LPS, 10 pt EC50
Outline: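 THP-1 cells (50K/well) are primed with IFNγ at 50 ng/mL for about 18 h. They are then pre-treated with compound for 1 h and stimulated with LPS at 1 ug/mL final for 18 h at 37 °C. Secreted IL-23p19 is measured by chemiluminescent sandwich ELISA and EC50 is derived by curve fitting, with Cell Titer Glo as a viability counter-screen.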

pEC50 ([1]; Table 1, IFNγ 50 ng/ml)	pEC50 ([1]; Table 2, IFNγ 50 ng/ml)	pEC50 ([2]; Table 1)	pEC50 ([2]; Table 2)	SMILES
7.99	7.99	7.92	7.92	C[C@@H]1CN(C2CCC(n3cc(NC(=O)c4coc(-c5cn[nH]c5)n4)c(-c4cccc(C(F)F)n4)n3)CC2)C[C@H](C)O1 (stereo partly drawn) [Compound I-5, N-(3-(6-(difluoromethyl)pyridin-2-yl)-1-((1R,4r)-4-((2R,6S)-2,6-dimethylmorpholino)cyclohexyl)-1H-pyrazol-4-yl)-2-(1H-pyrazol-4-yl)oxazole-4-carboxamide]
7.70	7.70	8.20	8.20	O=C(Nc1cn([C@H]2CC[C@H](N3CCOCC3)CC2)nc1-c1cccc(C(F)F)n1)c1coc(-c2cn[nH]c2)n1 [Compound I-4, N-(3-(6-(difluoromethyl)pyridin-2-yl)-1-((1r,4r)-4-morpholinocyclohexyl)-1H-pyrazol-4-yl)-2-(1H-pyrazol-4-yl)oxazole-4-carboxamide]

Source: US11993594B2, “IRAK inhibitors and method for making and using” (Rigel Pharmaceuticals, Inc., priority 2016, dated 2024)
